Drawing on patent US11801238B2, “Anti-viral activity of VPS34 inhibitors” (priority 2020, dated 2023), this text covers CC50 and IC50 for 4 compounds.

Series [1] is described as follows: in vitro. The settings on record: human.
Series [2] has as its system SARS CoV-2. Description: SARS CoV-2 CPE assay for antiviral activity in Vero E6 host cells. The following applies: read-out: IC50 for inhibition of SARS CoV-2 mediated cell killing. The series is classed as cell-based.
The subject of series [3] is SARS CoV-2. Description: microbe, parasite or virus in culture. Type of series: cell-based. The settings on record: Severe acute respiratory syndrome coronavirus 2, A549, 48 h; read-out: IC50 for inhibition of SARS CoV-2 mediated cell killing.
Series [4] in a line: Compound cytotoxicity (CC50) counter screen, Cell Titer-Glo. The series is classed as cell-based. The settings on record: African green monkey, Example 5, Vero E6 cells, read-out: CC50 (general cytotoxic effects). As for the experimental part:
Compound cytotoxicity (CC50) is assessed in a BSL-2 counter screen as follows: Host cells in media are added in 25 μl aliquots (4000 cells/well) to each well of assay ready plates prepared with test compounds as above. Cells only (100% viability) and cells treated with hyamine at 100 μM final concentration (0% viability) serve as the high and low signal controls, respectively, for cytotoxic effect in the assay. DMSO is maintained at a constant concentration for all wells (0.3%) as dictated by the dilution factor of stock test compound concentrations. After incubating plates at 37° C./5% CO2 and 90% humidity for 72 hours, 30 μl Cell Titer-Glo (Promega) is added to each well. Luminescence is read using a BMG PHERAstar plate reader following incubation at room temperature for 10 minutes to measure cell viability.
(In general: The purpose of a counterscreen is to sort out artefacts and off-target activity.)

Setting [5] is: Vero C1008, CPE assay, Vero E6 cells, USA_WA1/2020 SARS CoV-2, 72 hours, 10-point dose response (high concentration 15 μM).

Turning to `COC(=O)Nc1cc(-c2cc(-c3ccccc3C(F)(F)F)[nH]c(=O)c2)ccn1` [Compound 1], the CC50 in series [1] was determined as 17000 nM. Also, the results for the IC50 in series [2] (setting [5]) and in series [3] were 120 nM and 90 nM, respectively. Further, the CC50 at 72 h in series [4] is above 30000 nM.
Take `CC(=O)Nc1cc(-c2cc(-c3cccnc3C(F)(F)F)[nH]c(=O)c2)ccn1` [Compound 2]: in series [1], the CC50 was above 30000 nM. The results for the IC50 in series [2] (setting [5]) and in series [3] were 2340 nM and 470 nM, respectively. In addition, the CC50 at 72 h in series [4] was above 30000 nM.
Regarding `COC(=O)Nc1cc(-c2cc(-c3cccnc3C(F)(F)F)[nH]c(=O)c2)ccn1` [Compound 3], the CC50 in series [1] is above 30000 nM. The IC50 in series [2] (setting [5]) came to 340 nM; in series [3], 190 nM. For the same compound, the CC50 at 72 h in series [4] is above 30000 nM.
For the compound `COC(=O)Nc1cc(-c2cc(N3CCOCC3C(F)(F)F)[nH]c(=O)c2)ccn1` (stereo not shown) [Compound 4], in series [1], the CC50 is 2400 nM. The IC50 came to 209 nM in series [2] (Vero C1008, 72 h) and 67 nM in series [3]. In addition, the CC50 at 72 h in series [4] was 8260 nM.

One may read the IC50 as the point on the concentration scale where inhibition reaches its midpoint.
